Read-outs that look alike come from different tables or passages of the source.
What was measured:
HepG2 cells = assay: SRB assay, cytotoxicity of topotecan ± safranal; format: cell-based; settings: for IC50: Homo sapiens
Protocol: SRB assay. The effect of safranal on the cytotoxicity of the topoisomerase 1 inhibitor topotecan was tested using the sulforhodamine-B (SRB) assay as previously described. Exponentially growing HepG2 cells were seeded in 96-well plates at cell density of 1×10^4 cells per well. […] At the end of the incubation period, cells were fixed with 50% trichloroacetic acid (TCA) for 1 hours at 4° C. followed by washing, staining with SRB for 30 min followed by washing and solubilization of the stain with 10 mM Tris base (pH 10.5). The optical density (OD) at each well was measured spectrophotometrically at 564 nm with an ELISA microplate reader (Metertech. S960, USA). The IC50 values were calculated using sigmoidal concentration-response curve fitting models (Graph Pad, Prizm software).

[1] = test system: DEN-induced hepatic neoplasia; assay: Serum ALT and AST in DEN-induced HCC model; format: in vivo, male Wistar rats; settings: HCC rats, oral gavage 5 days a week, weeks 17-19, safranal 200 mg/kg, sorafenib 10 mg/kg, mean±SEM, n=6
Protocol: A modified version of the protocol described by DePeralta et al. (2016) and Schiffer et al. (2005) was used here to establish the hepatocarcinogenesis model.
On the first 15 weeks, the control PBS group was treated with 1×PBS, whereas the experimental groups were given an intraperitoneal injection (IP) of 50 mg/kg of diethylnitrosoamine (DEN, Sigma Aldrich), a widely used chemical for inducing cancer, once a week. DEN was diluted with 1×PBS. Following a one-week break (week 16), the next three weeks (weeks 17 to 19) of treatment commenced. All drugs were administrated by oral gavage. All doses were chosen according to literature (Alsaied et al., 2014; Karafakioglu et al., 2017). For the HCC+sorafenib group, the drug (Carbosynth Limited) was administered at a dose of 10 mg/kg, five days a week. For the HCC+safranal group, the drug (Sigma Aldrich) was administered at a dose of 200 mg/kg, five days a week. For the HCC+safranal+sorafenib group, the drugs were administered at a dose of 200 mg/kg safranal+10 mg/kg sorafenib, five days a week. Both safranal and sorafenib were diluted with 1×PBS and drops of Tween 80. […] After 24-hours from last treatment, the rats were euthanized by mild diethyl ether and dissected in equal conditions. Blood and whole liver were collected.
Rats were euthanized then blood was collected by decapitation and processed for later investigation. The blood was collected in collection tubes (BD Vacutainer) and serum was separated by centrifugation at 1200× g for 10 minutes. Serum was collected and flash frozen immediately then stored at −80° C. for further analysis.
Alanine Transaminase (ALT), and Aspartate Aminotransferase (AST) assays were performed using commercial kits (Abcam), according to the protocol provided. ALT and AST activities were measured spectrophotometrically using Epoch by BioTek.

Row | SMILES | sensitization factor (HepG2 cells; HepG2, incubation with safranal for 24 or 48 h before topotecan) | IC50 (HepG2 cells; HepG2, HepG2, SRB, topotecan 48 h alone or after safranal 500 μM pre-incubation, read-out: IC50 of topotecan ± safranal) | IC50 (HepG2 cells; HepG2, HepG2, incubation with safranal for 24 or 48 h before topotecan, read-out: topotecan IC50) | IC50 (HepG2 cells; HepG2, HepG2, topotecan alone, read-out: topotecan IC50) | ALT [1] | AST [1]
1 | CC[C@@]1(O)C(=O)OCc2c1cc1n(c2=O)Cc2cc3c(CN(C)C)c(O)ccc3nc2-1 [Topotecan, topotecan] | 73 | 118 nM | 1.6 nM | 118 nM |  | 
2 | CNC(=O)c1cc(Oc2ccc(NC(=O)Nc3ccc(Cl)c(C(F)(F)F)c3)cc2)ccn1 [sorafenib, reference compound] |  |  |  |  | 13.42 ± 1.12 mU/ml | 11.14 ± 0.62 mU/ml

From patent US12521425B2, “Method of liver cancer treatment with safranal-based formulations” (priority 2019, dated 2026)
